Measurements published in patent US20250042889A1, “3CLPRO PROTEASE INHIBITOR” (SHANGHAI QILU PHARMACEUTICAL RESEARCH AND DEVELOPMENT …, priority 2021, published 2025).

Biological target: SARS-COV-2 3CLpro/Mpro protease (Severe acute respiratory syndrome coronavirus 2 (2019-nCoV) (SARS-CoV-2), UniProt P0DTD1)
Assay: Inhibitory effect on SARS-COV-2 3CLpro/Mpro protease by fluorescence resonance energy transfer
Assay type: biochemical
Settings: activity intervals A-D, read-out: IC50 (nM), Inhibition on SARS-CoV-2 3CLpro/Mpro protease

Row | Compound | IC50 [nM]
1 | O=C(c1cncc(Br)c1)N1CC[C@@H](Nc2c(C(=O)N3CCC(F)(F)CC3)cc(Br)cc2C(F)(F)F)C1 [Example 69] | 50 to 100
2 | O=C(c1cncc(C(F)(F)F)c1)N1CCC[C@@H](Nc2c(C(=O)N3CCC(F)(F)CC3)cc(Br)cc2[N+](=O)[O-])C1 [Example 70] | 10 to 50
3 | Nc1cncc(C(=O)N2CCC[C@@H](Nc3c(C(=O)N4CCC(F)(F)CC4)cc(Br)cc3[N+](=O)[O-])C2)c1 [Example 71] | 10 to 50
4 | C[C@@H]1C[C@H](C)CN(C(=O)c2cc(Br)cc([N+](=O)[O-])c2N[C@@H]2CCCN(C(=O)c3cncc(Br)c3)C2)C1 [Example 72] | < 10
5 | C[C@@H]1CN(C(=O)c2cc(Br)cc([N+](=O)[O-])c2N[C@@H]2CCCN(C(=O)c3cncc(Br)c3)C2)C[C@H](C)N1 [Example 73] | 10 to 50
6 | Cc1cncc(C(=O)N2CCC[C@@H](Nc3c(C(=O)N4CCC(F)(F)CC4)cc(Br)cc3[N+](=O)[O-])C2)c1 [Example 74] | 50 to 100
7 | O=C(c1cncc(I)c1)N1CCC[C@@H](Nc2c(C(=O)N3CCC(F)(F)CC3)cc(Br)cc2[N+](=O)[O-])C1 [Example 75] | < 10
8 | C[C@@H]1CN(C(=O)c2cc(Br)cc([N+](=O)[O-])c2N[C@@H]2CCN(C(=O)c3cncc(Br)c3)C2)C[C@H](C)O1 [Example 76] | < 10
9 | CNc1cncc(C(=O)N2CCC[C@@H](Nc3c(C(=O)N4C[C@@H](C)N(C)[C@@H](C)C4)cc(Br)cc3[N+](=O)[O-])C2)c1 [Example 79] | 50 to 100
10 | CNc1cncc(C(=O)N2C[C@H](Nc3c(C(=O)N4CCCCC4)cc(Br)cc3[N+](=O)[O-])C(F)(F)C2)c1 [Example 81] | 10 to 50
11 | CNc1cncc(C(=O)N2C[C@H](Nc3c(C(=O)N4CCCCC4)cc(Br)cc3[N+](=O)[O-])C3(CC3)C2)c1 [Example 82] | 10 to 50
12 | CNc1cncc(C(=O)N2C[C@H](Nc3c(C(=O)N4CC5C(C4)C5(C)C)cc(Br)cc3[N+](=O)[O-])C3(CC3)C2)c1 (stereo partly shown) [Example 83] | 10 to 50
13 | CNc1cncc(C(=O)N2C[C@H](Nc3c(C(=O)N4CCN(CC(F)(F)F)CC4)cc(Br)cc3[N+](=O)[O-])C3(CC3)C2)c1 [Example 84] | 10 to 50
14 | CNc1cncc(C(=O)N2C[C@H](Nc3c(C(=O)N4CCN(CC(F)(F)F)C(=O)C4)cc(Br)cc3[N+](=O)[O-])C3(CC3)C2)c1 [Example 85] | 10 to 50
15 | CNc1cncc(C(=O)N2C[C@H](Nc3c(C(=O)N4C[C@H](C)C[C@H](C)C4)cc(Br)cc3[N+](=O)[O-])C3(CC3)C2)c1 [Example 86] | 10 to 50
16 | CNc1cncc(C(=O)N2C[C@H](Nc3c(C(=O)N4CCC(C)(C)CC4)cc(Br)cc3[N+](=O)[O-])C3(CC3)C2)c1 [Example 87] | 10 to 50
17 | Cc1cc(C(=O)N2C[C@H](Nc3c(C(=O)N4CC5C(C4)C5(C)C)cc(Br)cc3[N+](=O)[O-])C3(CC3)C2)cc(=O)[nH]1 (stereo partly shown) [Example 88] | 10 to 50
18 | Cc1cc(C(=O)N2C[C@H](Nc3c(C(=O)NCC(F)(F)F)cc(Br)cc3[N+](=O)[O-])C3(CC3)C2)cc(=O)[nH]1 [Example 89] | 10 to 50
19 | Cc1cc(C(=O)N2C[C@H](Nc3c(C(=O)N4CCN(CC(F)(F)F)CC4)cc(Br)cc3[N+](=O)[O-])C3(CC3)C2)cc(=O)[nH]1 [Example 90] | 10 to 50
20 | Cc1cc(C(=O)N2C[C@H](Nc3c(C(=O)N4CCN(CC(F)(F)F)C(=O)C4)cc(Br)cc3[N+](=O)[O-])C3(CC3)C2)cc(=O)[nH]1 [Example 91] | 10 to 50

Row | Compound | IC50 [nM]
21 | Cc1cc(C(=O)N2C[C@H](Nc3c(C(=O)N4C[C@H](C)C[C@H](C)C4)cc(Br)cc3[N+](=O)[O-])C3(CC3)C2)cc(=O)[nH]1 [Example 92] | 10 to 50
22 | Cc1cc(C(=O)N2C[C@H](Nc3c(C(=O)N4CCC(C)(C)CC4)cc(Br)cc3[N+](=O)[O-])C3(CC3)C2)cc(=O)[nH]1 [Example 93] | 10 to 50
23 | Cc1cc(C(=O)N2C[C@H](Nc3c(C(=O)N4CCC5(CC4)CC5)cc(Br)cc3[N+](=O)[O-])C3(CC3)C2)cc(=O)[nH]1 [Example 94] | 10 to 50
24 | Cc1cc(C(=O)N2C[C@H](Nc3c(C(=O)N4CCC5(CCC5)CC4)cc(Br)cc3[N+](=O)[O-])C3(CC3)C2)cc(=O)[nH]1 [Example 95] | 10 to 50
25 | CNc1cncc(C(=O)N2CCC[C@@H](Nc3c(C(=O)N4CC(=O)NC(C)C4)cc(Br)cc3[N+](=O)[O-])C2)c1 (stereo partly shown) [Example 96] | 50 to 100
26 | CNc1cncc(C(=O)N2CC(Nc3c(C(=O)N4CCN(CC(F)(F)F)CC4)cc(Br)cc3[N+](=O)[O-])C(F)(F)C2)c1 (stereo not shown) [Example 98] | 10 to 50
27 | CNc1cncc(C(=O)N2CC(Nc3c(C(=O)N4CCN(CC(F)(F)F)C(=O)C4)cc(Br)cc3[N+](=O)[O-])C(F)(F)C2)c1 (stereo not shown) [Example 99] | 100 to 200
28 | CNc1cncc(C(=O)N2CC(Nc3c(C(=O)N4C[C@H](C)C[C@H](C)C4)cc(Br)cc3[N+](=O)[O-])C(F)(F)C2)c1 (stereo partly shown) [Example 100] | 10 to 50
29 | Cc1cc(C(=O)N2CC(Nc3c(C(=O)N4CCCCC4)cc(Br)cc3[N+](=O)[O-])C(F)(F)C2)cc(=O)[nH]1 (stereo not shown) [Example 101] | 50 to 100
30 | CC1(Nc2c(C(=O)N3CCCCC3)cc(Br)cc2[N+](=O)[O-])CCCN(C(=O)c2cncc3ccccc23)C1 (stereo not shown) [Example 102] | 10 to 50
31 | O=C(c1cc(Br)cc([N+](=O)[O-])c1N[C@@H]1CCCN(C(=O)c2cncc3cc(F)ccc23)C1)N1CCCCC1 [Example 103] | 10 to 50
32 | O=C(c1cncc(Br)c1)N1CC(Nc2c(C(=O)N3CCC(F)(F)CC3)cc(Br)cc2[N+](=O)[O-])C(F)(F)C1 (stereo not shown) [Example 104] | 10 to 50
33 | O=C(c1cc(Br)c[n+]([O-])c1)N1CCC[C@@H](Nc2c(C(=O)N3CCC(F)(F)CC3)cc(Br)cc2[N+](=O)[O-])C1 [Example 105] | 50 to 100
34 | O=C(c1cc(Br)cnc1F)N1CCC[C@@H](Nc2c(C(=O)N3CCC(F)(F)CC3)cc(Br)cc2[N+](=O)[O-])C1 [Example 106] | 10 to 50
35 | O=C(N[C@H]1CCCC[C@H]1Nc1c(C(=O)N2CCOCC2)cc(Br)cc1[N+](=O)[O-])c1cc(=O)[nH]c2ccccc12 [Example 107] | 10 to 50
36 | Cc1cc(C(=O)N2CCC[C@@H](Nc3c(C(=O)N4CCC(F)(F)CC4)cc(Br)cc3[N+](=O)[O-])C2)cc(=O)[nH]1 [Example 108] | 10 to 50
37 | O=C(N[C@H]1CCCC[C@H]1Nc1c(C(=O)N2CCC(N3CCOCC3)CC2)cc(Br)cc1C(F)(F)F)c1cncc2cc(Cl)ccc12 [Example 109] | 10 to 50
38 | COCCN1CCN(C(=O)c2cc(Br)cc([N+](=O)[O-])c2N[C@@H]2CCCC[C@@H]2NC(=O)c2cncc3cc(Cl)ccc23)CC1 [Example 111] | < 10
39 | C[C@@H]1CN(C(=O)c2cc(Br)cc(C(F)(F)F)c2N[C@@H]2CCCC[C@@H]2NC(=O)c2cncc3cc(Cl)ccc23)C[C@H](C)O1 [Example 112] | 10 to 50
40 | C[C@@H]1CN(C(=O)c2cc(Br)cc([N+](=O)[O-])c2N[C@@H]2CCCC[C@@H]2NC(=O)c2cncc3cc(Cl)ccc23)C[C@H](C)O1 [Example 113] | < 10

Row | Compound | IC50 [nM]
41 | Nc1cncc(C(=O)N2CCC[C@@H](Nc3c(C(=O)N4CCOCC4)cc(Br)cc3[N+](=O)[O-])C2)c1 [Example 114] | 10 to 50
42 | C[C@@H]1CN(C(=O)c2cc(Br)cc([N+](=O)[O-])c2N[C@@H]2CCCN(C(=O)c3cncc(I)c3)C2)C[C@H](C)N1 [Example 115] | 10 to 50
43 | O=C(c1cc(Br)cc([N+](=O)[O-])c1N[C@@H]1CCCN(C(=O)c2cc(=O)[nH]c3ccccc23)C1)N1CCCCC1 [Example 116] | < 10
44 | O=C(c1cc(Br)cc([N+](=O)[O-])c1N[C@@H]1CCCN(C(=O)c2cc(=O)[nH]c3cc(Cl)ccc23)C1)N1CCOCC1 [Example 117] | 10 to 50
45 | O=C(N[C@H]1CCCC[C@H]1Nc1c(C(=O)N2CCN(CCO)CC2)cc(Br)cc1[N+](=O)[O-])c1cncc2cc(Cl)ccc12 [Example 118] | 10 to 50
46 | O=C(c1cc(Br)cc([N+](=O)[O-])c1N[C@@H]1CCCN(C(=O)c2cc(=O)[nH]c3ccccc23)C1)N1CCOCC1 [Example 119] | 10 to 50
47 | COCCN1CCN(C(=O)c2cc(Br)cc([N+](=O)[O-])c2N[C@@H]2CCCN(C(=O)c3cncc(I)c3)C2)CC1 [Example 120] | < 10
48 | C[C@@H]1CN(C(=O)c2cc(Br)cc([N+](=O)[O-])c2N[C@@H]2CCCC[C@@H]2NC(=O)c2cc(=O)[nH]c3ccccc23)C[C@H](C)O1 [Example 121] | < 10
49 | O=C(N[C@H]1CCCC[C@H]1Nc1c(C(=O)N2C[C@@H](O)CO2)cc(Br)cc1[N+](=O)[O-])c1cncc2cc(Cl)ccc12 [Example 122] | 10 to 50
50 | CN1CCN(C(=O)c2cc(Br)cc([N+](=O)[O-])c2N[C@@H]2CCCC[C@@H]2NC(=O)c2cncc3cc(Cl)ccc23)CC1 [Example 123] | < 10
51 | O=C(N[C@H]1CCCC[C@H]1Nc1c(C(=O)N2CC3(CCOCC3)C2)cc(Br)cc1[N+](=O)[O-])c1cncc2cc(Cl)ccc12 [Example 124] | 10 to 50
52 | C[C@@H]1CN(C(=O)c2cc(Br)cc([N+](=O)[O-])c2N[C@@H]2CCN(C(=O)c3cncc4cc(Cl)ccc34)C2)C[C@H](C)N1 [Example 125] | < 10
53 | O=C(N[C@H]1CCCC[C@H]1Nc1c(C(=O)N2CC[C@@H](O)C2)cc(Br)cc1C(F)(F)F)c1cncc2cc(Cl)ccc12 [Example 126] | 10 to 50
54 | O=C(c1cc(Br)cc([N+](=O)[O-])c1N[C@@H]1CCCN(C(=O)c2cc(=O)[nH]c3cc(Cl)ccc23)C1)N1CCCCC1 [Example 128] | 10 to 50
55 | C[C@@H]1CN(C(=O)c2cc(Br)cc([N+](=O)[O-])c2N[C@@H]2CCCN(C(=O)c3cc(=O)[nH]c4cc(Cl)ccc34)C2)C[C@H](C)O1 [Example 129] | 10 to 50
56 | C[C@H]1CN(C(=O)c2cc(Br)cc([N+](=O)[O-])c2N[C@@H]2CCCN(C(=O)c3cc(=O)[nH]c4ccccc34)C2)CCO1 [Example 130] | 10 to 50
57 | C[C@@H]1CN(C(=O)c2cc(Br)cc([N+](=O)[O-])c2N[C@@H]2CCCC[C@@H]2NC(=O)c2cncc3cc(Cl)ccc23)C[C@H](C)N1 [Example 131] | 10 to 50
58 | O=C(N[C@H]1CCCC[C@H]1Nc1c(C(=O)N2CCC3(CC2)COC3)cc(Br)cc1[N+](=O)[O-])c1cncc2cc(Cl)ccc12 [Example 132] | 10 to 50
